Key:
Test in all cases: relative viability (nuclei count vs DMSO), 5 days (fraction); higher = more cells survive
[1] = compound: C[C@@H](N)c1ccc(C(=O)Nc2ccnc3[nH]ccc23)cc1 + O=C(c1cc(Cc2n[nH]c(=O)c3ccccc23)ccc1F)N1CCN(C(=O)C2CC2)CC1 [Olaparib] (partner 8 µM)
Procedure, shortened: (§1)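 Dosing by pin tool came one day after lung cancer cell lines were seeded in 1536-well plates, using either one drug or a fixed anchor-drug dose plus five library-drug doses (not always all listed) in √10 steps. After 5 days, nuclei were counted on 4× images. Relative viability is treated-well nuclei count divided by vehicle-well nuclei count, and values are medians of duplicate plates.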

[2] = compound: C[C@@H](N)c1ccc(C(=O)Nc2ccnc3[nH]ccc23)cc1 + Nc1nc2[nH]cc(CCc3ccc(C(=O)N[C@@H](CCC(=O)O)C(=O)O)cc3)c2c(=O)[nH]1 [Pemetrexed] (partner 0.2 µM)
Procedure, shortened: as §1

[3] = compound: C1CNCCC1C2=CC(=NN2)C3=CC=NC=C3 + O=C(c1cc(Cc2n[nH]c(=O)c3ccccc23)ccc1F)N1CCN(C(=O)C2CC2)CC1 [Olaparib] (partner 8 µM)
Procedure, shortened: as §1

[4] = compound: C[C@@H](N)c1ccc(C(=O)Nc2ccnc3[nH]ccc23)cc1 + N=C(N)NC(=N)NCCc1ccccc1 [Phenformin] (partner 250 µM)
Procedure, shortened: as §1

Cell Line | relative viability ([1]; first compound 0.04 µM) | relative viability ([1]; first compound 0.1265 µM) | relative viability ([1]; first compound 0.4 µM) | relative viability ([1]; first compound 1.265 µM) | relative viability ([1]; first compound 4 µM) | relative viability ([2]; first compound 0.04 µM) | relative viability ([2]; first compound 0.1265 µM) | relative viability ([2]; first compound 0.4 µM) | relative viability ([2]; first compound 1.265 µM) | relative viability ([2]; first compound 4 µM) | relative viability ([3]; first compound 0.8 µM) | relative viability ([3]; first compound 2.53 µM) | relative viability ([3]; first compound 8 µM) | relative viability ([4]; first compound 0.04 µM) | relative viability ([4]; first compound 0.1265 µM) | relative viability ([4]; first compound 0.4 µM) | relative viability ([4]; first compound 1.265 µM) | relative viability ([4]; first compound 4 µM) | relative viability ([3]; first compound 0.08 µM)
SW 1573 | 0.534 | 0.531 | 0.446 | 0.44 | 0.361 | 0.792 | 0.792 | 0.845 | 0.582 | 0.703 | 0.612 | 0.655 | 0.626 | 0.363 | 0.487 | 0.368 | 0.363 | 0.284 | –
ChaGo-K-1 | 0.418 | 0.426 | 0.414 | 0.438 | 0.345 | 0.259 | 0.277 | 0.257 | 0.234 | 0.241 | 0.426 | 0.435 | 0.362 | 0.495 | 0.493 | 0.46 | 0.346 | 0.507 | 0.546
SK-MES-1 | 0.813 | 0.834 | 0.697 | 0.639 | 0.638 | 0.901 | 0.964 | 0.906 | 0.887 | 0.877 | 0.849 | 0.714 | 0.684 | 0.63 | 0.712 | 0.658 | 0.583 | 0.571 | 0.553
NCI-H1755 | 0.91 | 0.963 | 0.873 | 0.839 | 0.743 | 0.433 | 0.527 | 0.448 | 0.425 | 0.471 | 0.922 | 0.857 | 0.852 | 0.504 | 0.687 | 0.657 | 0.525 | 0.426 | 0.974
NCI-H2023 | 0.534 | 0.497 | 0.516 | 0.503 | 0.495 | 0.226 | 0.262 | 0.211 | – | 0.245 | 0.494 | 0.488 | 0.538 | 0.451 | 0.482 | 0.512 | 0.457 | 0.411 | 0.354
LC-2-ad | 0.744 | 0.693 | 0.646 | 0.647 | 0.478 | 0.263 | 0.267 | 0.248 | 0.279 | 0.259 | 0.781 | 0.664 | 0.694 | 0.549 | 0.599 | 0.609 | – | 0.558 | 0.719
NCI-H1666 | 0.786 | 0.764 | 0.856 | 0.825 | 0.906 | 0.872 | 0.815 | 0.847 | 0.956 | 0.974 | 0.768 | 0.806 | 0.745 | 0.534 | 0.603 | 0.651 | 0.631 | 0.561 | 0.704
201T | 0.867 | 0.883 | 0.818 | 0.895 | 0.949 | 0.316 | 0.297 | 0.382 | 0.29 | 0.314 | 0.863 | 0.832 | 0.858 | 0.427 | 0.442 | 0.462 | 0.428 | 0.473 | 0.832
NCI-H2009 | 0.657 | 0.666 | 0.611 | 0.595 | 0.547 | 0.984 | 0.975 | 0.943 | 0.866 | 0.765 | 0.749 | 0.648 | 0.728 | 0.473 | 0.531 | 0.468 | 0.443 | 0.435 | 0.683
NCI-H1395 | 0.473 | 0.511 | 0.406 | – | 0.393 | 0.888 | 0.95 | 0.927 | – | 0.741 | 0.404 | 0.447 | 0.522 | 0.433 | 0.497 | 0.436 | 0.36 | 0.453 | 0.46
NCI-H2228 | 0.535 | 0.726 | 0.714 | 0.917 | 0.771 | 0.342 | 0.385 | 0.302 | 0.347 | 0.327 | 0.747 | 0.575 | 0.549 | 0.354 | 0.393 | 0.315 | 0.33 | 0.357 | 0.617
LU99A | – | 0.231 | 0.253 | 0.275 | 0.281 | – | 0.189 | 0.191 | 0.23 | 0.188 | 0.259 | 0.269 | 0.314 | – | 0.924 | 0.768 | 0.605 | 0.635 | 0.257
NCI-H1437 | 0.649 | 0.678 | 0.636 | 0.632 | 0.645 | 0.3 | 0.307 | 0.351 | 0.329 | 0.34 | 0.644 | 0.679 | 0.642 | 0.335 | 0.346 | 0.35 | 0.324 | 0.336 | 0.636
EKVX | 0.993 | 1.14 | 1.03 | 0.923 | 0.727 | 0.365 | 0.383 | 0.566 | 0.354 | 0.379 | – | 1.05 | 0.755 | 0.228 | 0.245 | 0.241 | 0.124 | 0.222 | 0.882
NCI-H520 | 0.359 | 0.332 | 0.29 | 0.373 | 0.318 | 0.624 | 0.668 | 0.69 | 0.802 | 0.652 | 0.356 | 0.381 | 0.266 | 0.635 | 0.603 | 0.702 | 0.404 | 0.656 | 0.332
LCLC-97TM1 | 0.416 | 0.429 | 0.342 | 0.526 | 0.342 | 0.207 | 0.188 | 0.172 | 0.0771 | 0.21 | 0.399 | 0.429 | 0.326 | 0.418 | 0.458 | 0.521 | 0.365 | 0.427 | 0.341
NCI-H2170 | 0.618 | 0.584 | 0.614 | 0.746 | 0.543 | 0.284 | 0.249 | 0.271 | 0.277 | 0.263 | 0.632 | 0.626 | 0.609 | 0.401 | 0.442 | 0.492 | 0.353 | 0.38 | 0.606
NCI-H1793 | 1.09 | 0.999 | 1.04 | – | 0.928 | 1.02 | 0.978 | 0.94 | – | 1 | – | 0.902 | 0.953 | 0.355 | 0.424 | 0.421 | – | 0.393 | 0.748

— the supplement of paper PMC10307832
